From PubChem BioAssay AID624142 (National Center for Advancing Translational Sciences (NCATS), 2012)

Test system: human liver microsomes, half-life, LC-MS/MS
Assay: qHTS Assay to Find Inhibitors of T. brucei phosphofructokinase: Human Liver Microsome Stability
Settings: at 1 µM; active compounds read high

half-life: 5.5 h
SMILES: O=C(Cc1ccc(Cl)c(Cl)c1)Nc1ccc(S(=O)(=O)Nc2ccon2)cc1
